Structures are written as SMILES.

The experiment concerns rats. The experiment is described as follows: Acetic acid writhing model in rats. In kind it is in vivo, rat. The following applies: doses of 10 to 30 mg/kg, intraperitoneal route. The method, then: The Acetic Acid Writhing Model is associated with visceral pain (abdominal pain, such as stomach pain, and pain caused by, for example, bile duct congestion and kidney stones). A writhing test assesses acute peritoneovisceral pain.
After acclimation of 2-3 days, a test compound, positive control or vehicle control was administered by intraperitoneal injection (i.p.) or by oral gavage 15-30 minutes prior to administration of acetic acid. The time of administration of test compound was recorded. For mice: Method A: 0.6% Acetic acid solution in saline was injected i.p. in a volume of 10 ml/kg; Method B: 1.2% Acetic acid solution in saline was injected i.p. in a volume of 5 ml/kg. For rats: 4% acetic acid in saline was injected i.p in a volume of 2 ml/kg at T=0 minutes. Each animal was placed in a clear plastic cage. At T=5 minutes, the number of writhing movements was counted over a 45 minute period. Alternatively, the writhing movements were counted over a 5-minute period and repeated every 5 minutes, starting at T=5 minutes over a 45-minute period.
For each compound tested, the individual score was obtained by calculating the accumulated writhing movements for the time period studied. […]

Regarding `O=C(O)CNC(=O)c1cc(-c2cc(Cl)ccc2Oc2cc(F)c(S(=O)(=O)Nc3ncns3)cc2Cl)ccn1` [Compound 2, 2-(4-(2-(4-(N-(1,2,4-thiadiazol-5-yl)sulfamoyl)-2-chloro-5-fluorophenoxy)-5-chlorophenyl)picolinamido)acetic acid], the “reduction in pain (writhing) relative to vehicle control” value was 48-58%.

Source of the values: patent publication US9458118B2, “Sodium channel modulators for the treatment of pain and diabetes” (CHROMOCELL CORPORATION, priority 2013, dated 2016).
